Results: patent US11168095B2, “ASK1 inhibiting agents” (BIOGEN MA INC., priority 2017, dated 2021)
“And” between values parts separate entries of the source, which are not always exact repeats. Equal entries are not always repeated. Where two headings read alike, the source gives them in different places.

What was measured:
[1] = 14-membered ring
[2] = amide bond, 14-membered ring, T3P/Et3N
ASK1/MAP3K5 = ASK1/MAP3K5 (Homo sapiens (Human), UniProt Q99683); experiment: ASK1/MAP3K5 assay by Reaction Biology Corp.; format: biochemical; details: 20 μM myelin basic protein (MBP), 10 μM ATP
Experimental: ASK1/MAP3K5 was used as the protein kinase and 20 μM of myelin basic protein (MBP) and 10 μM ATP were used as the substrate.

[3] = molecular target: ASK1 T838 auto phosphorylation in HEK-293T cells (Homo sapiens (Human), UniProt Q99683); experiment: ASK1 (AUTO PHOS T838) assay, MSD format; format: cell-based; details: HEK 293T cells transfected with ASK1-V5 full length plasmid, compounds 1 hr at 37° C.; read-out: IC50
GST-hASK1 = GST-hASK1 (Homo sapiens (Human), UniProt Q99683); experiment: ASK1 TR-FRET assay; format: biochemical; details: 5 nM GST-hASK1, 100 μM ATP, 2 μM STK Substrate 3
Experimental: The protein kinase activity of 5 nM GST-hASK1(Life Technologies PV4011) was assayed with 100 μM ATP and 2 μM of HTRF biotinylated STK Substrate 3 (CisBio Kit 62ST3PEJ), at ambient temperature in 25 mM Hepes, pH 7.5, 50 mM NaCl, 10 mM MgCl2, 0.02% Brij-35, 1 mM DTT, and 1% DMSO.
After a 10 minute pre-incubation, ASK1 protein kinase activity was initiated by addition of 10 μL of 300 μM ATP.

GST-hASK1, sequence (Q99683 649-946): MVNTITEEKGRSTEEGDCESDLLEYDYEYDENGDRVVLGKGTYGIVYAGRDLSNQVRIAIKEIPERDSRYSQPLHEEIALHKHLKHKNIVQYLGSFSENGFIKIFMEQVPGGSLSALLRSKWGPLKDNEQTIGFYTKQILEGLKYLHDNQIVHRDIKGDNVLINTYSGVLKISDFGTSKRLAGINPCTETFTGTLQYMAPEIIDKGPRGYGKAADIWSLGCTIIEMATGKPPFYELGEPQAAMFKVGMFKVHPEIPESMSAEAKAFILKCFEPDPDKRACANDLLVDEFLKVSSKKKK
ASK1 T838 auto phosphorylation in HEK-293T cells, sequence (Q99683 whole entry): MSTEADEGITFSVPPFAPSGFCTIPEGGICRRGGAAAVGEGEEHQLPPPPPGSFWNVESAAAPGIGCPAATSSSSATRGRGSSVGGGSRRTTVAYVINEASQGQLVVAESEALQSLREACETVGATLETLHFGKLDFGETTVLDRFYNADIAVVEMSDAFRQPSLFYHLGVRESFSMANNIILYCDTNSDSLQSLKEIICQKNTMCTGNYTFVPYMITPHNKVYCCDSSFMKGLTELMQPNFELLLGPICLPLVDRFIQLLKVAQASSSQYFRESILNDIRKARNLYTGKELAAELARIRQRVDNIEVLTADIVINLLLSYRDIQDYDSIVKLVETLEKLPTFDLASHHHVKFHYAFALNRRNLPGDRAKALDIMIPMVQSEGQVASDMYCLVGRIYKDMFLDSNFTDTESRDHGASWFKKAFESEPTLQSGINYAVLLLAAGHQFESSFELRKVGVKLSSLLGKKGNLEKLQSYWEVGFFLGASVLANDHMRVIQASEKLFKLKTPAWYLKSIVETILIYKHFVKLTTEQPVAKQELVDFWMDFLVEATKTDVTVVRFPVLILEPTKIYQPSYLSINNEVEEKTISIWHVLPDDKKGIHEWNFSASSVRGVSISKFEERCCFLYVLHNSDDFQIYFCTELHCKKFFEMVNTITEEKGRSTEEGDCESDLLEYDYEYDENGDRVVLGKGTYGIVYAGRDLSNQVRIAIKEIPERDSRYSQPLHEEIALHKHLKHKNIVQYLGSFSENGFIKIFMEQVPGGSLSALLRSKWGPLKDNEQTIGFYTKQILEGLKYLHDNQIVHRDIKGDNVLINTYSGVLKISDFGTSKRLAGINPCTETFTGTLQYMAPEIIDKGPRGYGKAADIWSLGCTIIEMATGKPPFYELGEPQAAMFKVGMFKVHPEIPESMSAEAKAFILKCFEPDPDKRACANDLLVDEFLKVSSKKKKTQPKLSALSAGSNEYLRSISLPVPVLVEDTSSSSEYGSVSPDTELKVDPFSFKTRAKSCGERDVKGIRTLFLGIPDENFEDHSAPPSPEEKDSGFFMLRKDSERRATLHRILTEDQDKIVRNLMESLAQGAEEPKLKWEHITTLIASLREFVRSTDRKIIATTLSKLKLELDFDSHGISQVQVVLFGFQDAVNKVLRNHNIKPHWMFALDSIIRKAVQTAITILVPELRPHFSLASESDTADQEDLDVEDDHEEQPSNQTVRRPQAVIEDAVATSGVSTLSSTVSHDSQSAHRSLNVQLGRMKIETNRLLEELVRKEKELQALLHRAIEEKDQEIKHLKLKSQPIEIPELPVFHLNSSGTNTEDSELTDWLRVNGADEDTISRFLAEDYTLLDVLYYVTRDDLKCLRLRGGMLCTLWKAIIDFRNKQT
ASK1/MAP3K5, sequence (Q99683 whole entry): as above

IC50 (ASK1/MAP3K5) [nM]	IC50 [3] [nM]	IC50 (GST-hASK1) [nM]	Structure (SMILES)	other results
–	–	–	CC(C)(C)OC(=O)N1C(=O)c2cc(Br)c(F)cc2OCCC=CCn2cnnc2-c2cccc1n2	ring closure, isolated yield (from C=CCCOc1cc(F)c(Br)cc1C(=O)N(C(=O)OC(C)(C)C)c1cccc(-c2nncn2CC=C)n1, rcm bond, 15-membered ring, Hoveyda-Grubbs I (20 mol%), toluene, 1.66 mM, 110.0 °C, 17.0 h): 31%
–	–	–	CC(C)(C)OC(=O)N1C(=O)c2ccc(C(F)(F)F)cc2OCC=CCn2cnnc2-c2cccc1n2	ring closure, yield after HPLC ([1]; from C=CCOc1cc(C(F)(F)F)ccc1C(=O)N(C(=O)OC(C)(C)C)c1cccc(-c2nncn2CC=C)n1, rcm bond, Hoveyda-Grubbs I (20 mol%), toluene, 1.9 mM, 110.0 °C, 17.0 h): 9% and 13%
–	–	–	O=C1Nc2cccc(n2)-c2nncn2CC=CCOc2cc(C(F)(F)F)ccc21	ring closure, isolated yield (from C=CCOc1cc(C(F)(F)F)ccc1C(=O)Nc1cccc(-c2nncn2CC=C)n1, rcm bond, 14-membered ring, Hoveyda-Grubbs II (10 mol%), DCE, 2.64 mM, 80.0 °C, 3.0 h): 41%
–	–	–	O=C1Nc2cccc(n2)-c2nncn2CCCCOc2cc(C(F)(F)F)c(Cl)cc21	ring closure, yield after HPLC ([1]; from Nc1cccc(-c2nncn2CCCCOc2cc(C(F)(F)F)c(Br)cc2C(=O)O)n1, amide bond, T3P/Et3N, Et3N/EtOAc, 18.0 mM, 50.0 °C, 4.0 h): 40%
–	–	–	O=C1Nc2cccc(n2)-c2nncn2CCCCOc2cc(Cl)c(F)cc21	ring closure, isolated yield (from Nc1cccc(-c2nncn2CCCCOc2cc(Br)c(F)cc2C(=O)O)n1, amide bond, 14-membered ring, T3P/Et3N, Et3N/EtOAc, 110.0 °C, 0.05 h, 2 steps): 55%
–	–	–	O=C1Nc2cccc(n2)-c2nncn2CCCCOc2cc(Cl)ccc21	ring closure, isolated yield (from Nc1cccc(-c2nncn2CCCCOc2cc(Br)ccc2C(=O)O)n1, amide bond, 14-membered ring, T3P/Et3N, Et3N/EtOAc, 116.0 mM, 50.0 °C, 3.0 h): 27%
–	–	–	O=C1Nc2cccc(n2)-c2nncn2CCCCOc2cc(F)c(Cl)cc21	ring closure, isolated yield (from Nc1cccc(-c2nncn2CCCCOc2cc(F)c(Br)cc2C(=O)O)n1, amide bond, 14-membered ring, T3P/Et3N, Et3N/EtOAc, 117.0 mM, 80.0 °C, 17.0 h): 35%
–	–	–	O=C1Nc2cccc(n2)-c2nncn2CCCCOc2ccc(Cl)cc21	ring closure, isolated yield (from Nc1cccc(-c2nncn2CCCCOc2ccc(Br)cc2C(=O)O)n1, amide bond, 14-membered ring, T3P/Et3N, Et3N/EtOAc, 76.0 mM, 80.0 °C, 4.0 h): 41%
–	–	–	CC1CCCOc2cc(Cl)ccc2C(=O)Nc2cccc(n2)-c2nncn21 (racemic)	ring closure, crude yield ([2]; from CC(CCCOc1cc(Br)ccc1C(=O)O)n1cnnc1-c1cccc(N)n1, EtOAc/Et3N, 50.0 °C, 12.0 h): 37%
–	–	–	CC1CCCn2cnnc2-c2cccc(n2)NC(=O)c2cc(Cl)ccc2O1 (racemic)	ring closure, crude yield ([2]; from CC(CCCn1cnnc1-c1cccc(N)n1)Oc1ccc(Br)cc1C(=O)O, Et3N/EtOAc, 137.0 mM, 70.0 °C, 3.0 h): 57%
–	–	–	CC1CCOc2cc(F)c(Cl)cc2C(=O)Nc2cccc(n2)-c2nncn2C1 (racemic)	ring closure, isolated yield (from CC(CCOc1cc(F)c(Br)cc1C(=O)O)Cn1cnnc1-c1cccc(N)n1, amide bond, 14-membered ring, T3P/Et3N, Et3N/EtOAc, 43.0 mM, 70.0 °C, 2.0 h): 23%
< 100	< 1000	< 100	Cc1cn(-c2ccc3c(c2)C(=O)Nc2cccc(n2)-c2nncn2[C@H](C)CCCO3)cn1 [Example 93, (R)-10-Methyl-5^5-(4-methyl-1H-imidazol-1-yl)-1^4H-6-oxa-3-aza-2(2,6)-pyridina-1(3,4)-triazola-5(1,2)-benzenacyclodecaphan-4-one]	–
< 100	< 1000	< 100	Cc1cn(-c2ccc3c(c2)C(=O)Nc2cccc(n2)-c2nncn2[C@@H](C)CCCO3)cn1 [Example 94, (S)-10-Methyl-5^5-(4-methyl-1H-imidazol-1-yl)-1^4H-6-oxa-3-aza-2(2,6)-pyridina-1(3,4)-triazola-5(1,2)-benzenacyclodecaphan-4-one]	–
< 100	< 1000	< 100	C[C@H]1CCCOc2ccc(-c3cnn(C)c3)cc2C(=O)Nc2cccc(n2)-c2nncn21 [Example 96, (S)-10-Methyl-5^5-(1-methyl-1H-pyrazol-4-yl)-1^4H-6-oxa-3-aza-2(2,6)-pyridina-1(3,4)-triazola-5(1,2)-benzenacyclodecaphan-4-one]	–
< 100	< 1000	< 100	O=C1Nc2cccc(n2)-c2nncn2CCCCCOc2ccc(N3CCOCC3)cc21 [Example 172, 5^5-Morpholino-1^4H-6-oxa-3-aza-2(2,6)-pyridina-1(3,4)-triazola-5(1,2)-benzenacycloundecaphan-4-one]	–
< 100	< 1000	< 100	O=C1Nc2cccc(n2)-c2nncn2CCCCCOc2ccc(N3CC4(COC4)C3)cc21 [Example 173, 5^5-(2-Oxa-6-azaspiro[3.3]heptan-6-yl)-1^4H-6-oxa-3-aza-2(2,6)-pyridina-1(3,4)-triazola-5(1,2)-benzenacycloundecaphan-4-one]	–
